# Experimental data reported in patent US9145419B2, “Imidazopyridazinyl compounds” (Bristol-Myers Squibb Company, priority 2010, dated 2015).
# Target: Human CYP17 (Homo sapiens (Human), UniProt P05093)
# Assay: CYP17 Total SPA assay
# Type: biochemical
# Conditions: microsomes from HEK2 cells stably transfected with CYP17; 3H-Pregnenolone 1 uM, NADPH 2 mM
# Experimental: The assays were performed in U-bottom 384-well optiplates. The final assay volume was 15 μl prepared from 7.5 μl additions of microsomes (prepared as a high-speed pellet from homogenized HEK2 cells stably transfected with CYP17), substrates (3H-Pregnenolone and NADPH) and test compounds in assay buffer (50 mM Potassium phosphate pH 7.2, 10% glycerol). The reaction was initiated by the combination of the microsomes and substrates in wells containing compound. The reaction was incubated at room temperature for 45 minutes and terminated by adding 7.5 μl of 0.2N HCl to each well. Following an incubation period of 10 minutes, anti-DHEA-coated SPA beads were added to the terminated reaction. The plate was sealed and incubated overnight with shaking at 4° C. The beads were allowed to settle in the plate for 1 hour and the plate read on a TOPCOUNT® (Perkin-Elmer) plate reader.
# Inhibition data were calculated by comparison to no enzyme control reactions for 100% inhibition and vehicle-only reactions for 0% inhibition. The final concentration of reagents in the assays are NADPH, 2 mM; 3H-Pregnenolone, 1 uM; microsomes, 1.25 ug/ml; Anti-DHEA-SPA beads (0.125 mg/well) in 0.5% Triton X-100 and DMSO, 0.05%. Dose response curves were generated to determine the concentration required inhibiting 50% of enzyme activity (IC50). Compounds were dissolved at 10 mM in dimethylsulfoxide (DMSO) and evaluated at eleven concentrations, each in duplicate. IC50 values were derived by non-linear regression analysis.
# Human CYP17, sequence (P05093 whole entry): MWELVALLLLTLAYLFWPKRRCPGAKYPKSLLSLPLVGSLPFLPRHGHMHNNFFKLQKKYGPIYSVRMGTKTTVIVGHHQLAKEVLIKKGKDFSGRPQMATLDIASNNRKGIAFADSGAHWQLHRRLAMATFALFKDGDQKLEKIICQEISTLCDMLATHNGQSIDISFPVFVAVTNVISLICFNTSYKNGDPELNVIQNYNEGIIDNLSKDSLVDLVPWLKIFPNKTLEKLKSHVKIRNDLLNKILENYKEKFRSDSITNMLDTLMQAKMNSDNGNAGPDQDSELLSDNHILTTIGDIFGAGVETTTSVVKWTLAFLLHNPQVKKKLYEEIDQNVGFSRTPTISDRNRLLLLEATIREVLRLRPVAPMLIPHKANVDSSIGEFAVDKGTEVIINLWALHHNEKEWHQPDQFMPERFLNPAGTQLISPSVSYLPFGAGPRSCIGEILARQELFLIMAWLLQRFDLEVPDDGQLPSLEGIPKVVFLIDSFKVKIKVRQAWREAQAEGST
row,IC50 [nM],Compound
1,41,"Cc1ccncc1-c1ccnn2c(-c3ccccc3)cnc12 [Example 1, 8-(4-Methylpyridin-3-yl)-3-phenylimidazo[1,2-b]pyridazine]"
2,16,"COc1ccccc1-c1cnc2c(-c3cnccc3C)ccnn12 [Example 3, 3-(2-Methoxyphenyl)-8-(4-methylpyridin-3-yl)imidazo[1,2-b]pyridazine]"
3,56,"Cc1ccncc1-c1ccnn2c(-c3ccc(F)cc3)cnc12 [Example 7, 3-(4-fluorophenyl)-8-(4-methylpyridin-3-yl)imidazo[1,2-b]pyridazine]"
4,120,"Cc1cccc(-c2cnc3c(-c4cnccc4C)ccnn23)c1 [Example 9, 8-(4-methylpyridin-3-yl)-3-m-tolylimidazo[1,2-b]pyridazine]"
5,97,"Cc1ccncc1-c1ccnn2c(-c3cccc(Cl)c3)cnc12 [Example 11, 3-(3-chlorophenyl)-8-(4-methylpyridin-3-yl)imidazo[1,2-b]pyridazine]"
6,524,"Fc1ccc(-c2cnc3c(-c4cccnc4)ccnn23)cc1 [Example 26, 3-(4-fluorophenyl)-8-(pyridin-3-yl)imidazo[1,2-b]pyridazine]"
7,9,"Cc1ccncc1-c1ccnn2c(-c3cccs3)cnc12 [Example 35, 8-(4-methylpyridin-3-yl)-3-(thiophen-2-yl)imidazo[1,2-b]pyridazine]"
8,129,"Cc1ccncc1-c1ccnn2c(-c3cccc(C(F)(F)F)c3)cnc12 [Example 37, 8-(4-methylpyridin-3-yl)-3-(3-(trifluoromethyl)phenyl)imidazo[1,2-b]pyridazine]"
9,279,"Cc1cc(C)cc(-c2cnc3c(-c4cnccc4C)ccnn23)c1 [Example 38, 3-(3,5-dimethylphenyl)-8-(4-methylpyridin-3-yl)imidazo[1,2-b]pyridazine]"

row,Compound,IC50 [nM]
1,"Cc1ccncc1-c1ccnn2c(-c3cc(Cl)cc(Cl)c3)cnc12 [Example 34, 3-(3,5-dichlorophenyl)-8-(4-methylpyridin-3-yl)imidazo[1,2-b]pyridazine]",664

# System: testosterone levels
# Assay: 1-Day Cyno PK/PD study
# Type: in vivo
# Conditions: cynomolgus monkeys, single oral dose 3 mg/Kg in 80% PEG-400/water, plasma, over 24 hour period
# Experimental: 1-Day Cyno PK/PD Study Protocol
# Animals: All procedures involving animals and their care were conducted in conformity with the guidelines that are in compliance with the Bristol-Myers Squibb Institutional Animal Care and Use Committee. Fully mature male cynomolgus monkeys (>4 yrs of age; 5-6 kg) were from an in-house colony. All the monkeys used had chronically implanted femoral vein access ports. For oral studies, all animals were fasted overnight prior to dosing and were fed 4 hr after dosing. All animals had free access to water and were conscious throughout the study.
# Drug: For all oral pharmacokinetic studies in cynomolgus monkeys, the tested compound was formulated in polyethylene glycol (PEG 400): water (80:20, v:v) at concentrations of 1-5 mg/mL. […]
# Sampling: Blood samples were collected from the femoral port, at 15, 30, and 45 min, and 1, 2, 4, 6, 8, 12, 24, 30, and 48 hr after oral administration. […] The plasma fraction was immediately separated by centrifugation (14,000 rpm, 10 min, 4° C.), frozen on dry ice, and stored at −20° C. until the samples were analyzed.
# Analysis of Tested Compound: Plasma samples were thawed and treated with two volumes of acetonitrile containing internal standard. After centrifugation to remove precipitated proteins, an aliquot of supernatant was analyzed by LC/MS/MS. […]
row,Compound,testosterone levels [ng/dL]
1,"Cc1ccncc1-c1ccnn2c(-c3ccc(F)cc3)cnc12 [Example 7, 3-(4-fluorophenyl)-8-(4-methylpyridin-3-yl)imidazo[1,2-b]pyridazine]",~15
